Laboratory results as given in patent US8796288B2, “Anhydrous crystalline forms of N-[1-(2-ethoxyethyl)-5-(N-ethyl-N-methylamino)-7-(4-methylpyridin-2-yl-amino)-1H-pyrazolo[4,3-d]pyrimidine-3-carbonyl]methanesulfonamide” (Pfizer Inc., priority 2005, dated 2014).
“Also recorded” adds a separate entry of the source.

Legend:
[1] = Stability of Form A and Form B (slurry conversion in methanol with PXRD, DSC comparison); type: physicochemical
Protocol: Form A, Form B and Form C were each analyzed using differential scanning calorimetry (DSC). A TA Instruments Q1000 differential scanning calorimeter was used to perform each analysis. Each sample was heated from 25 to 300° C. at 20° C. per minute in an aluminium pan with the lid laid on top, with a nitrogen purge gas. The temperature of the melting endothermic peak was reported as the melting point.
Approximately 25 mg of Form A (see Example 3) was slurried at room temperature with 1 ml of methanol. […] A small sample was removed from the slurry.
The thermodynamically stabilities of Form A and Form B were compared as described below. First, approximately 25 mg of Form A was slurried in approximately 1 ml of methanol. […] A small sample was removed from the slurry.

[2] = Stability of Form B and Form C (bridging slurry studies, PXRD analysis); type: physicochemical
Protocol: Bridging studies were performed in the following solvent systems to determine the relative thermodynamic stabilities of Form B and Form C: (1) THF/H2O (50:50 volume/volume), (2) methyl ethyl ketone (“MEK”), (3) methanol, and (4) methanol/dichloromethane (DCM) (50:50 volume/volume). The MEK study was performed at room temperature while the studies with the other three solvent systems were performed at both 40° C. and 60° C. In each study a suspension of Form B in the appropriate solvent system was prepared. Approximately 10 mg of Form C was then added to each suspension. The suspensions were then allowed to slurry at the appropriate temperature for a specific period of time. The solvent system, temperature of the solvent system, and period of time over which the suspension was allowed to slurry are set forth below for each study: • (1) Study A: Slurried for 3 days in MEK at room temperature; • (2) Study B: Slurried for 3 days in THF/H2O (50:50) at 40° C.; • (3) Study C: Slurried for 3 days in THF/H2O (50:50) at 60° C.; • (4) Study D: Slurried for 21 days in Methanol at 40° C.; • (5) Study E: Slurried for 21 days in Methanol at 60° C.; • (6) Study F: Slurried for 5 days in Methanol/DCM at 40° C.; and • (7) Study G: Slurried for 21 days in Methanol/DCM at 60° C.
At the end of the specified time period, a sample was removed from each slurry and analyzed by PXRD. […]

CCOCCn1nc(C(=O)NS(C)(=O)=O)c2nc(N(C)CC)nc(Nc3cc(C)ccn3)c21 [Form A, N-[1-(2-ethoxyethyl)-5-(N-ethyl-N-methylamino)-7-(4-methylpyridin-2-yl-amino)-1H-pyrazolo[4,3-d]pyrimidine-3-carbonyl]methanesulfonamide]
crystalline form found by PXRD after slurrying ([1]; approximately 25 mg slurried in approximately 1 ml of methanol): Form B

CCOCCn1nc(C(=O)NS(C)(=O)=O)c2nc(N(C)CC)nc(Nc3cc(C)ccn3)c21 [Form B, N-[1-(2-ethoxyethyl)-5-(N-ethyl-N-methylamino)-7-(4-methylpyridin-2-yl-amino)-1H-pyrazolo[4,3-d]pyrimidine-3-carbonyl]methanesulfonamide]
relative thermodynamic stability of Form A and Form B ([1]; from slurry conversion analysis and DSC analysis, ambient as well as elevated temperatures): more thermodynamically stable than Form A
relative thermodynamic stability of Form B and Form C above the crossover point ([2]; temperatures above the crossover point): more thermodynamically stable than Form C; also recorded: most thermodynamically stable form

CCOCCn1nc(C(=O)NS(C)(=O)=O)c2nc(N(C)CC)nc(Nc3cc(C)ccn3)c21 [Form C, N-[1-(2-ethoxyethyl)-5-(N-ethyl-N-methylamino)-7-(4-methylpyridin-2-yl-amino)-1H-pyrazolo[4,3-d]pyrimidine-3-carbonyl]methanesulfonamide]
relative thermodynamic stability of Form B and Form C below the crossover point ([2]; temperatures below the crossover point (including ambient)): more thermodynamically stable than Form B; also recorded: most thermodynamically stable form
